In the NIST ThermoML archive (doi:10.1016/j.jct.2011.02.018):

Assay: xn = mol fraction of the nth substance listed
Settings: 101 kPa, Liquid; for viscosity: Concentric cylinders viscometry; for mass density: Vibrating tube method

COC(C)(C)C [2-methoxy-2-methylpropane] + CCO
Settings | mass density, 293.15 K [kg/m3] | mass density, 298.15 K [kg/m3] | mass density, 303.15 K [kg/m3] | mass density, 308.15 K [kg/m3] | viscosity, 293.15 K [mPa·s] | viscosity, 298.15 K [mPa·s] | viscosity, 303.15 K [mPa·s] | viscosity, 308.15 K [mPa·s]
x1 = 0.0097 | 789.03 | 784.78 | 780.44 | 776.08 | 1.174 | 1.067 | 0.9713 | 0.884
x1 = 0.0198 | 788.28 | 783.99 | 779.64 | 775.26 | 1.146 | 1.043 | 0.9506 | 0.8659
x1 = 0.0301 | 787.54 | 783.23 | 778.87 | 774.47 | 1.118 | 1.027 | 0.9348 | 0.8484
x1 = 0.0402 | 786.85 | 782.54 | 778.16 | 773.74 | 1.092 | 0.9956 | 0.9088 | 0.8298
x1 = 0.0502 | 786.37 | 782.01 | 777.63 | 773.2 | 1.073 | 0.9782 | 0.893 | 0.8165
x1 = 0.0583 | 785.66 | 781.32 | 776.91 | 772.46 | 1.049 | 0.9582 | 0.8745 | 0.7986
x1 = 0.07 | 784.87 | 780.51 | 776.08 | 771.61 | 1.023 | 0.9337 | 0.854 | 0.7813
x1 = 0.0801 | 784.2 | 779.82 | 775.37 | 770.89 | 1 | 0.9146 | 0.8364 | 0.7634
x1 = 0.0861 | 783.96 | 779.52 | 775.09 | 770.6 | 0.9912 | 0.9061 | 0.8291 | 0.7578
x1 = 0.1009 | 782.99 | 778.56 | 774.11 | 769.6 | 0.9622 | 0.8805 | 0.806 | 0.7369
x1 = 0.154 | 779.59 | 775.08 | 770.56 | 765.97 | 0.8624 | 0.792 | 0.7283 | 0.6689
x1 = 0.2006 | 776.77 | 772.21 | 767.62 | 762.96 | 0.7889 | 0.7263 | 0.6694 | 0.6147
x1 = 0.2471 | 774.06 | 769.46 | 764.79 | 760.08 | 0.7261 | 0.6707 | 0.6185 | 0.5661
x1 = 0.2975 | 771.22 | 766.56 | 761.83 | 757.06 | 0.6675 | 0.6182 | 0.5731 | 0.5259
x1 = 0.3487 | 768.46 | 763.75 | 758.96 | 754.12 | 0.6166 | 0.5722 | 0.5309 | 0.4855
x1 = 0.3976 | 765.94 | 761.16 | 756.32 | 751.43 | 0.5761 | 0.5357 | 0.4954 | 0.4552
x1 = 0.4532 | 763.17 | 758.36 | 753.45 | 748.5 | 0.5354 | 0.4987 | 0.4638 | 0.4257
x1 = 0.5007 | 760.96 | 756.08 | 751.15 | 746.15 | 0.5062 | 0.4708 | 0.4353 | 0.3994
x1 = 0.5505 | 758.76 | 753.83 | 748.85 | 743.8 | 0.4798 | 0.4482 | 0.4155 | 0.379
x1 = 0.5998 | 756.62 | 751.67 | 746.63 | 741.53 | 0.4564 | 0.426 | 0.3967 | 0.363
x1 = 0.6484 | 754.48 | 749.51 | 744.43 | 739.29 | 0.4361 | 0.4083 | 0.3808 | 0.3487
x1 = 0.6995 | 752.35 | 747.32 | 742.19 | 737 | 0.4156 | 0.39 | 0.3632 | 0.3313
x1 = 0.749 | 750.35 | 745.3 | 740.14 | 734.91 | 0.3998 | 0.3751 | 0.3459 | 0.3273
x1 = 0.7995 | 748.36 | 743.27 | 738.06 | 732.8 | 0.3844 | 0.3616 | 0.3381 | 0.3084
x1 = 0.8496 | 746.44 | 741.31 | 736.08 | 730.78 | 0.3715 | 0.3488 | 0.3271 | 0.3025
x1 = 0.9009 | 744.51 | 739.34 | 734.07 | 728.75 | 0.3589 | 0.3384 | 0.3159 | 0.2963
x1 = 0.9093 | 744.2 | 739.04 | 733.77 | 728.45 | 0.3573 | 0.3382 | 0.3136 | 0.2948
x1 = 0.9166 | 743.9 | 738.72 | 733.47 | 728.14 | 0.3534 | 0.3338 | 0.3143 | 0.2965
x1 = 0.9299 | 743.35 | 738.18 | 732.9 | 727.57 | 0.352 | 0.3326 | 0.3136 | 0.2908
x1 = 0.9398 | 742.96 | 737.79 | 732.51 | 727.17 | 0.35 | 0.3294 | 0.3107 | 0.2884
x1 = 0.9501 | 742.54 | 737.38 | 732.09 | 726.76 | 0.348 | 0.3264 | 0.3068 | 0.2842
x1 = 0.9597 | 742.15 | 736.97 | 731.71 | 726.36 | 0.3458 | 0.3256 | 0.3066 | 0.2829
x1 = 0.968 | 741.84 | 736.66 | 731.37 | 726.03 | 0.3444 | 0.3247 | 0.3062 | 0.282
x1 = 0.9802 | 741.35 | 736.15 | 730.87 | 725.52 | 0.3418 | 0.3226 | 0.304 | 0.2809
x1 = 0.9868 | 741.1 | 735.92 | 730.61 | 725.26 | 0.3421 | 0.3209 | 0.3005 | 0.2794
